Results: the RepoRT retention time repository (doi:10.1021/es4044374)

Experiment: RP, Waters XBridge C18, 50 × 2.1 mm, 3.5 µm, 30 °C, 0.2 mL/min, estimated dead time 0.55 min; A: water + 0.1% formic acid, pH 3; B: methanol + 0.1% formic acid, pH 3; gradient (min/%B) 0/10 4/50 17/95 25/95 25.1/10 30/10
Conditions: stereoisomer not certain

| SMILES | LC retention time [min] |
| --- | --- |
| Cc1nnc(-c2ccccc2)c(=O)n1N [Metamitron] | 4.9 |
| Cc1cccc(C)c1N(Cn1cccn1)C(=O)CCl [Metazachlor] | 8.5 |
| CCC(=O)C(CC(C)N(C)C)(c1ccccc1)c1ccccc1 (stereo unspecified) [Methadone] | 8.4 |
| CNC(C)Cc1ccccc1 (stereo unspecified) [Methamphetamine] | 3.7 |
| CNC(=O)Oc1cc(C)c(S(C)=O)c(C)c1 (stereo unspecified) [Methiocarb-sulfoxide] | 4.9 |
| CNC(=O)Oc1cc(C)c(SC)c(C)c1 [Methiocarb] | 10.4 |
| CNC(=O)ON=C(C)SC [Methomyl] | 3.6 |
| COc1cccc(C(=O)NN(C(=O)c2cc(C)cc(C)c2)C(C)(C)C)c1C [Methoxyfenozide] | 10.9 |
| CCc1cccc(C)c1N(C(=O)CCl)C(C)COC (stereo unspecified) [Metolachlor] | 11.8 |
| CSc1nnc(C(C)(C)C)c(=O)n1N [Metribuzin] | 6.9 |
| COC(=O)c1ccccc1S(=O)(=O)NC(=O)Nc1nc(C)nc(OC)n1 [Metsulfuron-methyl] | 7.1 |
| C=C1C(=O)NC(C)C(=O)NC(CC(C)C)C(=O)NC(C(=O)O)C(C)C(=O)NC(CCCN=C(N)N)C(=O)NC(C=CC(C)=CC(C)C(Cc2ccccc2)OC)C(C)C(=O)NC(C(=O)O)CCC(=O)N1C (stereo unspecified) [Microcystin-LR] | 10.2 |
| CN(C)C(=O)Nc1ccc(Cl)cc1 [Monuron] | 6.7 |
| CN1CCC23c4c5ccc(O)c4OC2C(O)C=CC3C1C5 (stereo unspecified) [Morphine] | 1.1 |
| CCCCC(C#N)(Cn1cncn1)c1ccc(Cl)cc1 (stereo unspecified) [Myclobutanil] | 11.2 |
| CN=CNc1ccc(C)cc1C [N'-(2,4-Dimethylphenyl)-N-methylformamidine] | 4.5 |
| CCNS(=O)(=O)C(F)(F)C(F)(F)C(F)(F)C(F)(F)C(F)(F)C(F)(F)C(F)(F)C(F)(F)F [N-Ethylperfluoroctansulfonamid (N-EtFOSA)] | 17.1 |
| O=C1CCC2(O)C3Cc4ccc(O)c5c4C2(CCN3CC2CC2)C1O5 (stereo unspecified) [Naltrexone] | 3.1 |
| CCN(CC)C(=O)C(C)Oc1cccc2ccccc12 (stereo unspecified) [Napropamid] | 11.7 |

| SMILES | LC retention time [min] |
| --- | --- |
| COc1cc(OC)nc(NC(=O)NS(=O)(=O)c2ncccc2C(=O)N(C)C)n1 [Nicosulfuron] | 7.1 |
| O=C1Nc2ccc(Cl)cc2C(c2ccccc2)=NC1O (stereo unspecified) [Oxazepam] | 9 |
| O=C(O)C(F)(F)C(F)(F)C(F)(F)C(F)(F)C(F)(F)C(F)(F)C(F)(F)C(F)(F)C(F)(F)F [Perfluorodecanoic acid] | 15.2 |
| O=P(O)(O)OCCC(F)(F)C(F)(F)C(F)(F)C(F)(F)C(F)(F)C(F)(F)C(F)(F)C(F)(F)F [Perfluorodecyl phosphate] | 14.7 |
| O=C(O)C(F)(F)C(F)(F)C(F)(F)C(F)(F)C(F)(F)C(F)(F)F [Perfluoroheptanoic acid] | 11.1 |
| O=C(O)C(F)(F)C(F)(F)C(F)(F)C(F)(F)C(F)(F)F [Perfluorohexanoic acid] | 9.3 |
| O=C(O)C(F)(F)C(F)(F)C(F)(F)C(F)(F)C(F)(F)C(F)(F)C(F)(F)C(F)(F)F [Perfluorononanoic acid] | 13.9 |
| O=C(O)C(F)(F)C(F)(F)C(F)(F)C(F)(F)C(F)(F)C(F)(F)C(F)(F)F [Perfluorooctanoic acid] | 12.6 |
| O=P(O)(O)OCCC(F)(F)C(F)(F)C(F)(F)C(F)(F)C(F)(F)C(F)(F)F [Perfluorooctyl phosphate] | 12.1 |
| O=C(O)C(F)(F)C(F)(F)C(F)(F)C(F)(F)F [Perfluoropentanoic acid] | 7.3 |
| O=C(O)C(F)(F)C(F)(F)C(F)(F)C(F)(F)C(F)(F)C(F)(F)C(F)(F)C(F)(F)C(F)(F)C(F)(F)F [Perfluoroundecanoic acid] | 16.3 |
| CCOCCN(C(=O)CCl)C(=C(C)C)c1ccccc1 [Pethoxamide] | 11.5 |
| COC(=O)Nc1cccc(OC(=O)Nc2cccc(C)c2)c1 [Phenmedipham] | 9.5 |
| CCc1cc(C)cc(CC)c1-c1c(OC(=O)C(C)(C)C)n2n(c1=O)CCOCC2 [Pinoxaden] | 13.7 |
| Cc1nc(N(C)C)nc(OC(=O)N(C)C)c1C [Pirimicarb] | 5 |
| CCCN(CCOc1c(Cl)cc(Cl)cc1Cl)C(=O)n1ccnc1 [Prochloraz] | 12.2 |
| COc1nc(NC(C)C)nc(NC(C)C)n1 [Prometon] | 6.7 |
| CSc1nc(NC(C)C)nc(NC(C)C)n1 [Prometryn] | 8.5 |

Continued, values first:

| LC retention time [min] | SMILES |
| --- | --- |
| 5.1 | Cc1nnc(-c2ccccc2)c(=O)[nH]1 [Metamitron-desamino] |
| 5.5 | Cc1cccc(C)c1N(Cn1cccn1)C(=O)CS(=O)(=O)O [Metazachlor ESA] |
| 5.5 | Cc1cccc(C)c1N(Cn1cccn1)C(=O)C(=O)O [Metazachlor OXA] |
| 0.8 | CN(C)C(=N)N=C(N)N [Metformin] |
| 9.2 | CC1CC2C(C(O)CC3(C)C2CCC3(O)C(=O)CO)C2(C)C=CC(=O)C=C12 (stereo unspecified) [Methylprednisolone] |
| 4.3 | CCN(CC)CCNC(=O)c1cc(Cl)c(N)cc1OC [Metoclopramide] |
| 7.8 | CCc1cccc(C)c1N(C(=O)CS(=O)(=O)O)C(C)COC (stereo unspecified) [Metolachlor ESA] |
| 9.3 | CCc1cccc(C)c1N(C(=O)C(=O)O)C(C)COC (stereo unspecified) [Metolachlor OXA] |
| 8.2 | CCc1cccc(C)c1N1C(=O)COCC1C (stereo unspecified) [Metolachlor morpholinone] |
| 5.1 | COCCc1ccc(OCC(O)CNC(C)C)cc1 (stereo unspecified) [Metoprolol] |
| 5.9 | CC(C)(C)c1n[nH]c(=O)n(N)c1=O [Metribuzin-diketo] |
| 2.1 | Cc1ncc([N+](=O)[O-])n1CCO [Metronidazole] |
| 4.5 | O=C(NCCN1CCOCC1)c1ccc(Cl)cc1 [Moclobemide] |
| 9.9 | COc1c(C)c2c(c(O)c1CC=C(C)CCC(=O)O)C(=O)OC2 [Mycophenolic acid] |
| 3.6 | CC(=O)Nc1ccc(S(=O)(=O)Nc2ncccn2)cc1 [N4-Acetylsulfadiazine] |
| 6.3 | COc1cc(OC)nc(NS(=O)(=O)c2ccc(NC(C)=O)cc2)n1 [N4-Acetylsulfadimethoxine] |
| 4.5 | CC(=O)Nc1ccc(S(=O)(=O)Nc2nc(C)cc(C)n2)cc1 [N4-Acetylsulfamethazine] |
| 5.5 | CC(=O)Nc1ccc(S(=O)(=O)Nc2cc(C)on2)cc1 [N4-Acetylsulfamethoxazole] |
| 4.1 | CC(=O)Nc1ccc(S(=O)(=O)Nc2nccs2)cc1 [N4-Acetylsulfathiazole] |
| 6.3 | COc1ccc(C(CN)C2(O)CCCCC2)cc1 (stereo unspecified) [N,N-Didesmethylvenlafaxine] |
| 7.5 | Cc1ccc(NS(=O)(=O)N(C)C)cc1 [N,N-Dimethyl-N'-p-tolylsulphamide] |
| 6.3 | CN(C)S(=O)(=O)Nc1ccccc1 [N,N-Dimethyl-N'-phenylsulfamide] |

| LC retention time [min] | SMILES |
| --- | --- |
| 1.1 | CN(C)S(N)(=O)=O [N,N-Dimethylsulfamide] |
| 4.9 | CNCC(c1ccc(O)cc1)C1(O)CCCCC1 (stereo unspecified) [N,O-Didesmethylvenlafaxine] |
| 6.3 | CNCC(c1ccc(OC)cc1)C1(O)CCCCC1 (stereo unspecified) [N-Desmethylvenlafaxine] |
| 16.9 | CCN(CC(=O)O)S(=O)(=O)C(F)(F)C(F)(F)C(F)(F)C(F)(F)C(F)(F)C(F)(F)C(F)(F)C(F)(F)F [N-Ethylperfluorooctane sulfonamidoacetic acid] |
| 16.5 | CN(CC(=O)O)S(=O)(=O)C(F)(F)C(F)(F)C(F)(F)C(F)(F)C(F)(F)C(F)(F)C(F)(F)C(F)(F)F [N-methylperfluorooctane sulfonamidoacetic acid] |
| 10.2 | COc1ccc2cc(C(C)C(=O)O)ccc2c1 (stereo unspecified) [Naproxen] |
| 7.2 | COc1ccc(CCC(=O)c2c(O)cc(OC3OC(CO)C(O)C(O)C3OC3OC(C)C(O)C(O)C3O)cc2O)cc1O (stereo unspecified) [Neohesperidin dihydrochalcone] |
| 9 | COC(=O)C(Cc1ccccc1)NC(=O)C(CC(=O)O)NCCC(C)(C)C (stereo unspecified) [Neotame] |
| 4.4 | CCn1cc(C(=O)O)c(=O)c2cc(F)c(N3CCNCC3)cc21 [Norfloxacin] |
| 4.8 | CN(C)CC(c1ccc(O)cc1)C1(O)CCCCC1 (stereo unspecified) [O-desmethylvenlafaxine] |
| 13.3 | CCN(CC)C(=O)SCc1ccccc1Cl [Orbencarb] |
| 5.1 | CCC(CC)OC1C=C(C(=O)O)CC(N)C1NC(C)=O (stereo unspecified) [Oseltamivir carboxylate] |
| 7 | CCOC(=O)C1=CC(OC(CC)CC)C(NC(C)=O)C(N)C1 (stereo unspecified) [Oseltamivir] |
| 6.6 | COc1ccnc(CS(=O)c2nc3ccc(OC(F)F)cc3[nH]2)c1OC (stereo unspecified) [Pantoprazole] |
| 2.2 | CC(=O)Nc1ccc(O)cc1 [Paracetamol] |
| 5.1 | O=C(O)C(F)(F)C(F)(F)C(F)(F)F [Perfluorobutyric acid] |
| 15.9 | O=C(O)CNS(=O)(=O)C(F)(F)C(F)(F)C(F)(F)C(F)(F)C(F)(F)C(F)(F)C(F)(F)C(F)(F)F [Perfluorooctane sulfonamidoacetic acid] |
| 9.2 | CCC(C)C(=O)OC1CC(O)C=C2C=CC(C)C(CCC(O)CC(O)CC(=O)O)C21 (stereo unspecified) [Pravastatin] |
| 8 | CC12C=CC(=O)C=C1CCC1C2C(O)CC2(C)C1CCC2(O)C(=O)CO (stereo unspecified) [Prednisolone] |
| 5.4 | CCC1(c2ccccc2)C(=O)NCNC1=O [Primidone] |
| 5.9 | CC(C)N(C(=O)CS(=O)(=O)O)c1ccccc1 [Propachlor ESA] |
| 5.6 | CC(C)N(C(=O)C(=O)O)c1ccccc1 [Propachlor OXA] |
